Test results from PubChem BioAssay AID248 (DTP/NCI, 2004).
Where “and” joins values, the source holds several entries; their conditions need not be identical. Equal values may be shown once. Inconclusive results and toxic doses are left out. Rule as the data show it: active = T/C of 150% or more; inactive = T/C below 125%.

System: L1210 leukemia ip in BDF1 mice, survival T/C
Assay: NCI In Vivo Anticancer Drug Screen. Data for tumor model L1210 Leukemia (intraperitoneal) in B6D2F1 (BDF1) mice
Conditions: endpoint: mean survival time, higher = longer survival
Method in brief: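 Read-out is survival time, reported as the treated-group measurement over the vehicle-control measurement.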

[1] = dose: 100.0 mg/kg/injection, schedule: Q01DX001 (ip), vehicle: saline
[2] = dose: 200.0 mg/kg/injection, schedule: Q01DX001 (ip), vehicle: saline
[3] = dose: 400.0 mg/kg/injection, schedule: Q01DX001 (ip), vehicle: saline
[4] = dose: 100.0 mg/kg/injection, schedule: Q04DX003 (ip), vehicle: saline with Tween-80
[5] = dose: 200.0 mg/kg/injection, schedule: Q04DX003 (ip), vehicle: saline with Tween-80
[6] = dose: 400.0 mg/kg/injection, schedule: Q04DX003 (ip), vehicle: saline with Tween-80
[7] = dose: 100.0 mg/kg/injection, schedule: Q01DX009 (ip), vehicle: saline with Tween-80
[8] = dose: 200.0 mg/kg/injection, schedule: Q01DX009 (ip), vehicle: saline with Tween-80
[9] = dose: 400.0 mg/kg/injection, schedule: Q01DX009 (ip), vehicle: saline with Tween-80
[10] = dose: 100.0 mg/kg/injection, schedule: Q04DX003 (ip), vehicle: Klucel (hydroxypropylcellulose) (HPC)
[11] = dose: 200.0 mg/kg/injection, schedule: Q04DX003 (ip), vehicle: Klucel (hydroxypropylcellulose) (HPC)
[12] = dose: 400.0 mg/kg/injection, schedule: Q04DX003 (ip), vehicle: Klucel (hydroxypropylcellulose) (HPC)
[13] = dose: 100.0 mg/kg/injection, schedule: Q01DX001 (ip), vehicle: carboxymethylcellulose (CMC)

Measured: T/C

ClCc1c2ccccc2c(CCl)c2ccccc12
inactive: dose: 0.9 mg/kg/injection, schedule: Q01DX009 (ip), vehicle: saline with Tween-80 118 % of control | dose: 1.35 mg/kg/injection, schedule: Q01DX009 (ip), vehicle: saline with Tween-80 120 % of control | dose: 2.05 mg/kg/injection, schedule: Q01DX009 (ip), vehicle: saline with Tween-80 111 % of control | dose: 2.08 mg/kg/injection, schedule: Q01DX009 (ip), vehicle: saline 120 % of control | dose: 3.12 mg/kg/injection, schedule: Q01DX009 (ip), vehicle: saline 111 % of control | dose: 4.0 mg/kg/injection, schedule: Q01DX009 (ip), vehicle: carboxymethylcellulose (CMC) 110 % of control | dose: 4.68 mg/kg/injection, schedule: Q01DX009 (ip), vehicle: saline with Tween-80 94 % of control | dose: 4.68 mg/kg/injection, schedule: Q01DX009 (ip), vehicle: saline 98 % of control | dose: 5.0 mg/kg/injection, schedule: Q01DX009 (ip), vehicle: carboxymethylcellulose (CMC) 121 % of control | dose: 6.2 mg/kg/injection, schedule: Q01DX015 (ip), vehicle: carboxymethylcellulose (CMC) 112 % of control | dose: 7.0 mg/kg/injection, schedule: Q01DX001 (ip), vehicle: saline 114 % of control | dose: 9.3 mg/kg/injection, schedule: Q01DX015 (ip), vehicle: carboxymethylcellulose (CMC) 106 % of control | dose: 14.0 mg/kg/injection, schedule: Q01DX001 (ip), vehicle: saline 104 % of control | dose: 14.0 mg/kg/injection, schedule: Q01DX015 (ip), vehicle: carboxymethylcellulose (CMC) 104 % of control | dose: 16.0 mg/kg/injection, schedule: Q01DX009 (ip), vehicle: carboxymethylcellulose (CMC) 119 % of control | dose: 20.0 mg/kg/injection, schedule: Q01DX009 (ip), vehicle: carboxymethylcellulose (CMC) 123 % of control | dose: 28.0 mg/kg/injection, schedule: Q01DX001 (ip), vehicle: saline 104 % of control | dose: 56.0 mg/kg/injection, schedule: Q01DX001 (ip), vehicle: saline 109 % of control | dose: 88.8 mg/kg/injection, schedule: Q01DX001 (ip), vehicle: saline 113 % of control | [1] 118 % of control | dose: 112.0 mg/kg/injection, schedule: Q01DX001 (ip), vehicle: saline 109 % of control | [2] 109 % of control | dose: 300.0 mg/kg/injection, schedule: Q01DX001 (ip), vehicle: saline 109 % of control | [3] 92 % of control

O=C1C=CC(=O)N1c1ccccc1Cl (tested in a mixture with another compound)
inactive: dose: 100.0 mg/kg/injection, schedule: Q04DX003 (ip), vehicle: acetone 107 % of control | dose: 200.0 mg/kg/injection, schedule: Q04DX003 (ip), vehicle: acetone 100 % of control | dose: 400.0 mg/kg/injection, schedule: Q04DX003 (ip), vehicle: acetone 96 % of control

CCc1ccccc1NC(=O)c1ccccc1Cl
inactive: dose: 100.0 mg/kg/injection, schedule: Q01DX009 (ip), vehicle: other 97 % of control | [4] 102 % of control | dose: 200.0 mg/kg/injection, schedule: Q01DX009 (ip), vehicle: other 95 % of control | [5] 101 % of control | dose: 400.0 mg/kg/injection, schedule: Q01DX009 (ip), vehicle: other 89 % of control | [6] 93 % of control

CCOC(=O)c1ccc(OC(=O)Nc2ccccc2)cc1
inactive: [7] 98 % of control | [4] 98 % of control | [8] 96 % of control | [5] 95 % of control | [9] 90 % of control | [6] 91 % of control

O=C(O)CC1(C(=O)O)CCN(Cc2ccccc2)CC1
inactive: [10] 103 % of control | [11] 102 % of control | [12] 100 % of control

C(=C1\CC(c2ccccc2)(c2ccccc2)N=N1)/c1ccccc1
inactive: [10] 91 % of control | [11] 114 % of control | [12] 101 % of control

O=C(O)/C(=C\c1ccccc1Br)c1ccc(C(F)(F)F)cc1[N+](=O)[O-]
inactive: dose: 100.0 mg/kg/injection, schedule: Q01DX009 (ip), vehicle: saline sonified 109 % of control | dose: 200.0 mg/kg/injection, schedule: Q01DX009 (ip), vehicle: saline sonified 98 % of control

CCNC(=O)Oc1ccc(S(=O)(=O)F)cc1Cl
inactive: dose: 25.0 mg/kg/injection, schedule: Q01DX001 (ip), vehicle: carboxymethylcellulose (CMC) 91 % of control | dose: 50.0 mg/kg/injection, schedule: Q01DX001 (ip), vehicle: carboxymethylcellulose (CMC) 107 % of control | [13] 98 % of control and 100 % of control

CC1=NN(c2ccccc2)C(=O)C1N=Nc1ccc(S(=O)(=O)Nc2nccs2)cc1 (stereo not drawn)
inactive: [1] 96 % of control | [2] 91 % of control | [3] 91 % of control

COC(=O)c1ccccc1NC(c1ccccn1)c1ccc2cccnc2c1O (stereo not drawn)
inactive: dose: 125.0 mg/kg/injection, schedule: Q01DX Z (ip), vehicle: carboxymethylcellulose (CMC) 108 % of control | dose: 250.0 mg/kg/injection, schedule: Q01DX Z (ip), vehicle: carboxymethylcellulose (CMC) 102 % of control | dose: 500.0 mg/kg/injection, schedule: Q01DX Z (ip), vehicle: carboxymethylcellulose (CMC) 101 % of control

O=COC1CC2CC1C1CCCC21 (stereo not drawn)
inactive: [4] 94 % of control | [5] 92 % of control

COc1ccc(C2(C)OC(=O)c3ccccc32)c2ccccc12 (stereo not drawn)
inactive: dose: 100.0 mg/kg/injection, schedule: Q01DX001 (ip), vehicle: saline with Tween-80 94 % of control | dose: 200.0 mg/kg/injection, schedule: Q01DX001 (ip), vehicle: saline with Tween-80 100 % of control | dose: 400.0 mg/kg/injection, schedule: Q01DX001 (ip), vehicle: saline with Tween-80 87 % of control

Clc1ccc(/C=C/c2ccc(Cl)cc2)cc1
inactive: dose: 75.0 mg/kg/injection, schedule: Q04DX003 (ip), vehicle: Klucel (hydroxypropylcellulose) (HPC) 95 % of control | dose: 150.0 mg/kg/injection, schedule: Q04DX003 (ip), vehicle: Klucel (hydroxypropylcellulose) (HPC) 95 % of control | dose: 300.0 mg/kg/injection, schedule: Q04DX003 (ip), vehicle: Klucel (hydroxypropylcellulose) (HPC) 98 % of control

Nc1n[nH]c(N)n1.[Ni]
inactive: [7] 101 % of control | [4] 113 % of control | [8] 111 % of control | [5] 103 % of control | [9] 104 % of control | [6] 98 % of control

Cc1cc(N(CCCl)CCCl)ccc1C=Nc1ccc(-c2csc(COc3ccccc3)n2)c(Cl)c1
inactive: [13] 95 % of control | dose: 200.0 mg/kg/injection, schedule: Q01DX001 (ip), vehicle: carboxymethylcellulose (CMC) 108 % of control | dose: 400.0 mg/kg/injection, schedule: Q01DX001 (ip), vehicle: carboxymethylcellulose (CMC) 103 % of control
